Experimental data reported in patent US5578643A, “Protective prostaglandins for use in conjunction with chemotherapeutic agents” (Loyola University of Chicago, priority 1994, dated 1996).

Key:
[1] = tested on: mice given doxorubicin (DOX); experiment: Survival of mice (percent survival over 15 days) after doxorubicin, with or without prior prostaglandin; conditions: n=16
Description: FIG. 1 is a graph illustrating percent survival of mice over 15 days as a function of the time interval (in hours) between the administration of misoprostol and the subsequent administration of doxorubicin. (The two curves represent duplicate experiments; 12 animals per experiment.)
FIG. 2 is a graph illustrating the percent survival of mice over 15 days following the administration of 0.5 mg of doxorubicin (open circles) and mice given 40 μg of misoprostol 2 hours before administration of 0.5 mg of doxorubicin (filled circles). (N=16 for each group).
FIG. 3 is a graph illustrating the percent survival of mice over 15 days following the administration of 0.75 mg of doxorubicin (open circles) and mice given 40 μg of misoprostol 2 hours before administration of 0.75 mg of doxorubicin (filled circles). (N=16 for each group).
Mortality of mice is a measure of PG-induced protection from death due to severe normal tissue injury inflicted by chemotherapy agents.
This assay was accomplished by injecting intraperitoneally (IP) separate groups of mice with a range of doses of chemotherapeutic agents. […] In some groups of mice, longevity was recorded by plotting the number of animals remaining alive (percent survival) versus time following the administration of the chemotherapeutic agent.
PG-induced protection from the toxic chemotherapeutic agents was measured by subcutaneous (SC) injection of the PG at various times prior to or after the IP administration of the chemotherapeutic agent. […] The time interval was varied from 15 minutes to 5 hours. The two curves represent two separate experiments with 20 mice in each experiment. The "0" time point is the percentage of mice that survived 15 days after administration of doxorubicin alone.

[2] = tested on: mice given 5-fluorouracil; experiment: Survival of mice after 12.5 mg of 5-fluorouracil, with or without prior misoprostol; type: in vivo; conditions: 40 μg misoprostol 2 hours before 12.5 mg of 5-fluorouracil; FIG. 4
Description: The toxicity of 12.5 mg of 5-fluorouracil alone to mice and the effectiveness of 40 μg of misoprostol given 2 hours prior to administration of 5-fluorouracil to protect from death due to 5-fluorouracil is shown in FIG. 4.

[3] = tested on: mice given graded doses of doxorubicin (DOX); experiment: DOX dose response: dose killing 50% of the mice within 15 days, alone or after PG or WR-2721; type: in vivo; conditions: 40 μg misoprostol SC 2 hours before graded doses of DOX; death within 15 days; FIG. 5
Description: The open triangle is data of a group of 10 mice given WR-2721, 30 minutes before administration of 0.75 mg of doxorubicin. (The lines are computer fit spline curves through the data; n=24 per data point on each curve).
(The lines are computer fit spline curves through the data; n=8 per data point for each of the PG-treated groups and n=24 for the data points of mice treated only with doxorubicin).
It was observed that all acute deaths due to DOX treatment alone occurred before day 15 following DOX administration. Subsequently, the parameter of death within 15 days was used to investigate the DOX dose response administered IP alone or 2 hours after 40 μg of misoprostol was given subcutaneously (sc). In this study, a dose of about 0.5 mg of DOX/average 30 gram mouse, killed 50% of the DOX treated mice (see FIG. 5).
A comparison of PG-induced protection was made to that of protection by WR-2721; an agent reported to protect from some chemotherapeutic agents. […] Two other PGs representing different structural prostaglandins than misoprostol were also investigated for their effectiveness in protecting mice from mortality resulting from administration of graded doses of DOX.

[4] = tested on: white blood cells (WBCs) in the peripheral circulation; experiment: WBC counts and differential counts in peripheral blood of DOX treated mice; type: in vivo
Description: FIG. 7 is a graph illustrating the protective effect of misoprostol (given 2 hours before doxorubicin) on WBC counts compared to the effect of doxorubicin alone on WBC counts as function of time (in days). (The numbers 1 and 2 are duplicate studies.)
Death within 15 days of DOX treatment alone is most likely associated with bone marrow injury. […] DOX, therefore, appears to not only reduce the total WBC, but has a particularly marked effect on lymphocytes.

hair follicles = experiment: Hair count / hair loss (alopecia) caused by chemotherapeutic agents, 5 daily treatments; type: in vivo, mice; conditions: 5 days
Description: Panel C is a representation of a photomicrograph of an animal given 40 μg of misoprostol, 2 hours before the 0.1 mg daily dose of doxorubicin given each day for 5 days.
(Data are the means of 6 mice (2 fields/mouse)±1 SEM.)
Amount of Hair Loss as a Measure of PG-induced Protection from Alopecia caused by Chemotherapeutic Agents.
One of the side effects of chemotherapy in cancer patients is hair loss or alopecia. Studies were conducted to measure a possible protective effect of PGs from alopecia caused by chemotherapeutic agents. […] The hairs on the rumps of mice (n=4/group) were plucked to induce a growth or anagen cycle within hair follicles which continues for about 18 days. […] Control groups (n=4) received no treatment or misoprostol alone.

hair medullary cells = experiment: Number of hair medullary cells four days after a single dose of chemotherapeutic agent, with or without misoprostol; type: in vivo, CF1 mice
Description: FIG. 13 is a representation of photographs of shafts of hair showing a single line of medullary cells in control mice (Panel A) and in mice 4 days after they were given a single dose of 0.3 mg of VP-16-213 (Panel B).
Number of Hair Medullary Cells as a Measure of Protection from Injury caused by Chemotherapeutic Agents.
The shafts of hair in CF1 mice contain usually a single line of about 50±1 medullary cells. These cells are very sensitive to cytotoxic agents (see Potten, C. S., Geng, L., and Taylor, P., Hair Medullary Cell Counts: a Simple and Sensitive Indicator of Radiation Exposure. Int. J Radiat. Biol., 57:13-21, 1990). Single doses of cytotoxic chemotherapeutic agents greatly reduce the number of medullary cells which reach a nadir at 4 days after administration of the agent. This cell system has been used for the evaluation of misoprostol-induced protection from several chemotherapeutic agents.
CF1 mice had hair from an area of their rump plucked to induce anagen growth as described in Example 2 above. […] In separate groups, mice received misoprostol (40 μg/average 30 g mouse) either subcutaneously or applied topically 2 hours before each of the chemotherapeutic agents listed above. Untreated controls were used since it has been previously determined that water, or 2% EtOH in water, or phosphate buffer at pH=6.8 (the vehicles for the all agents used) had no influence on the cell counts compared to untreated controls. Twenty-five hairs from each animal of each group were dissected from Feulgen stained samples taken from the mice 4 days after treatment.
The number of medullary cells was averaged (n=4) for each treatment group and the results for all chemotherapeutic agents tested to date are presented in Table I.

CCCCC(C)(O)C/C=C/[C@H]1[C@H](O)CC(=O)[C@@H]1CCCCCCC(=O)OC (mixture of isomers) [misoprostol, (±)(16RS)-15-deoxy-16-hydroxy-16-methyl prostaglandin E1, methyl ester]
percent still alive by day 15, misoprostol before DOX ([1]; 40 μg misoprostol 2 hours before 0.75 mg of DOX, FIG. 3): about 85%
percent survival after 15 days, misoprostol before DOX ([1]; 40 μg misoprostol SC 2 hours before 0.5 mg of doxorubicin, FIG. 2): 100%
protection of mice from death due to 5-fluorouracil [2]: effective in protecting mice from damaging effects of 5-fluorouracil
DOX dose required to kill 50% of the population of mice, after misoprostol [3]: about 1.0 mg of DOX/average 30 gram mouse
percentage of lymphocytes, misoprostol before DOX ([4]; 40 μg of misoprostol 2 hours before 0.5 mg of DOX, differential counts of peripheral blood): greater than 30%
WBC counts, misoprostol before DOX ([4]; misoprostol 40 μg/30 gram mouse 2 hours before DOX (0.5 mg/30 gram mouse), FIG. 7): remained near control levels
number of hairs, misoprostol + DOX (hair follicles; 40 μg misoprostol SC 2 hours before each daily 0.1 mg DOX, FIG. 9): 213±7.8 hairs per 4.42 sq. mm
number of hairs, misoprostol + CTX (hair follicles; 40 μg misoprostol SC 2 hours before each daily 1.0 mg cytoxan, FIG. 10): 222+5.5 hairs per 4.42 sq. mm
Number of Medullar Cells ± 1 SEM, misoprostol subcutaneously (hair medullary cells; 40 μg SC 2 hrs before 5 FU (1.0 mg)): 37.4 ± 5.0
Number of Medullar Cells ± 1 SEM, misoprostol subcutaneously (hair medullary cells; 40 μg SC 2 hrs before ARA-C (8 mg)): 40.1 ± 0.7
Number of Medullar Cells ± 1 SEM, misoprostol subcutaneously (hair medullary cells; 40 μg SC 2 hrs before Bleomycin (0.05 mg)): 27.9 ± 1.2
Number of Medullar Cells ± 1 SEM, misoprostol subcutaneously (hair medullary cells; 40 μg SC 2 hrs before CTX (1 mg)): 33.1 ± 1.3
Number of Medullar Cells ± 1 SEM, misoprostol subcutaneously (hair medullary cells; 40 μg SC 2 hrs before Carboplatin (1.0 mg)): 31.2 ± 2.4
Number of Medullar Cells ± 1 SEM, misoprostol subcutaneously (hair medullary cells; 40 μg SC 2 hrs before Cisplatin (0.25 mg)): 14.3 ± 0.4
Number of Medullar Cells ± 1 SEM, misoprostol subcutaneously (hair medullary cells; 40 μg SC 2 hrs before DOX (0.3 mg)): 30.0 ± 1.1
Number of Medullar Cells ± 1 SEM, misoprostol subcutaneously (hair medullary cells; 40 μg SC 2 hrs before HU (10 mg)): 38.9 ± 0.7
Number of Medullar Cells ± 1 SEM, misoprostol subcutaneously (hair medullary cells; 40 μg SC 2 hrs before Methotrexate (0.2 mg)): 50.6 ± 0.6
Number of Medullar Cells ± 1 SEM, misoprostol subcutaneously (hair medullary cells; 40 μg SC 2 hrs before Mitomycin C (0.01 mg)): 38.2 ± 1.9
Number of Medullar Cells ± 1 SEM, misoprostol subcutaneously (hair medullary cells; 40 μg SC 2 hrs before Taxol (0.6 mg)): 26.0 ± 3.5
Number of Medullar Cells ± 1 SEM, misoprostol subcutaneously (hair medullary cells; 40 μg SC 2 hrs before VP-16-213 (0.3 mg)): 34.4 ± 1.1
Number of Medullar Cells ± 1 SEM, misoprostol topical (hair medullary cells; 40 μg topical 2 hrs before ARA-C (8 mg)): 43.1 ± 1.7
Number of Medullar Cells ± 1 SEM, misoprostol topical (hair medullary cells; 40 μg topical 2 hrs before Bleomycin (0.05 mg)): 28.1 ± 1.0
Number of Medullar Cells ± 1 SEM, misoprostol topical (hair medullary cells; 40 μg topical 2 hrs before CTX (1 mg)): 31.5 ± 2.2
Number of Medullar Cells ± 1 SEM, misoprostol topical (hair medullary cells; 40 μg topical 2 hrs before DOX (0.3 mg)): 27.0 ± 1.3
Number of Medullar Cells ± 1 SEM, misoprostol topical (hair medullary cells; 40 μg topical 2 hrs before HU (10 mg)): 40.7 ± 1.0
Number of Medullar Cells ± 1 SEM, misoprostol topical (hair medullary cells; 40 μg topical 2 hrs before Methotrexate (0.2 mg)): 46.7 ± 2.2
Number of Medullar Cells ± 1 SEM, misoprostol topical (hair medullary cells; 40 μg topical 2 hrs before VP-16-213 (0.3 mg)): 33.0 ± 1.6
lack of protection of medullary cells (hair medullary cells; ARA-C, bleomycin, HU (misoprostol given systemically), cisplatin, carboplatin or 5-FU treated mice): did not protect medullary cells
